Legend:
[1] = pH stability measurement (UPLC, 0.1 N HCl); assay type: physicochemical; settings: buffer, 24 h, 148 µM, pH 1
Protocol: Compounds were provided in 96-well plates and tested in triplicate. Four microliters of a 10 mM stock solution of compound in DMSO were distributed into each of three wells. The plate was stored at or below −20° C. until the day of the analysis. Methanol (HPLC grade) and 0.1 N HCl (EMD catalog HX0603A-6) were used for dilutions. Acetonitrile (HPLC grade), water (Milli-Q filtered), trifluoroacetic acid (spectral grade) and 0.2M phosphate buffer (Wako, catalog no. 163-14471) were used to prepare the mobile phase for the two analyses.
Stability data was obtained using a Waters Acquity UPLC equipped with a UV detector (Waters TUV) and single quadrupole MS detector (Waters SQD). The 96-well plate containing the compound(s) of interest was(were) removed from the freezer and allowed to warm to room temperature for one hour. The UPLC was primed, equilibrated and the system performance was verified by injecting a standard. After 1 hour, each of the three wells was diluted with 266 μL 0.1 N HCl to give pH=1. The plate was covered and placed on a shaker (Eppindorf Thermomixer R) for 45 minutes at 600 rpm. The plate was removed from the shaker, and the contents of each well were filtered through a filtration plate (Millipore catalog no. MSSLBPC50) by vacuum and injected into the UPLC. After approximately 24 hours, the contents of the wells were re-injected into the UPLC.
Stability in the various buffers was measured by comparing the peak area- % of the analyte in methanol versus the peak area- % of the analyte at the same retention time in 0.1 N HCl buffer in the 24 hr time point injection.

[2] = patients; administered as intravenous infusion; cited from earlier work
[3] = tested on: WiDr-R cells (colon cancer cells, SF3B1 R1074H mutation); settings: cited from earlier work
[4] = tested on: reporter gene controlled by human VEGF promoter; settings: read-out: IC50, VEGF-promoted gene expression; cited from earlier work
U251 human glioma cells = U251 human glioma cells in vitro; read-out: IC50, glioma cell proliferation; cited from earlier work

| % parent remaining (pH = 1, 24 hours) [1] [%] | Compound | oral bioavailability [2] | resistance of WiDr-R cells in terms of growth inhibition [3] | IC50 [4] [nM] | IC50 (U251 human glioma cells) [nM] |
| --- | --- | --- | --- | --- | --- |
| 44 | CCC(O)C(C)C1OC1CC(C)(O)/C=C/C=C(\C)C1OC(=O)CC(O)CCC(C)(O)C(OC(=O)N2CCN(C3CCCCCC3)CC2)/C=C/C1C (centres unmarked) [Compound E7107, (8E,12E,14E)-7-((4-Cycloheptylpiperazin-1-yl)carbonyl)oxy-3,6,16,21-tetrahydroxy-6,10,12,16,20-pentamethyl-18,19-epoxytricosa-8,12,14-trien-11-olide, reference compound] | insufficient oral bioavailability | – | – | – |
| – | Pladienolide B | – | resistant to pladienolide B in terms of growth inhibition | 1.8 | 3.5 |
